pEC50: −log10 of the molar value.
Molecular target: T1, FPRL-1 (Homo sapiens, UniProt P25090)
T1 construct: expressed in transfected cells
T1 sequence (P25090 1-351): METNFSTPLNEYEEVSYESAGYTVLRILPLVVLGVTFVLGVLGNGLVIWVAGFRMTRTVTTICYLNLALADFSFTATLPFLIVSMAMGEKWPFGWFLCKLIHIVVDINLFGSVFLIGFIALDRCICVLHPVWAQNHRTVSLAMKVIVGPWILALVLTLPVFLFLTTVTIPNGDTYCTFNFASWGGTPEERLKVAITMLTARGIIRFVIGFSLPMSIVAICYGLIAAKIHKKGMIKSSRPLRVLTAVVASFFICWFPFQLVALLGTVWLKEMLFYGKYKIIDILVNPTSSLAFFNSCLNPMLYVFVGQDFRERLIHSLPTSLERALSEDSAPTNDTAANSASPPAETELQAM
Assay: compound-induced calcium activity on FLIPR Tetra in CHO-Gα16 cells stably expressing FPRL1
Type: cell-based
Details: for FPRL-1 Ga16-CHO (Rel. eff.): relative efficacy; for pEC50: tested 0.61 to 10,000 nM, read-out: FPRL-1 Ga16-CHO EC50
Method: CHO-Gα16 cells stably expressing FPRL1 were cultured in (F12, 10% FBS, 1% PSA, 400 μg/ml geneticin and 50 μg/ml hygromycin) and HEK-Gqi5 cells stable expressing FPR1 were cultured in (DMEM high glucose, 10% FBS, 1% PSA, 400 μg/ml geneticin and 50 μg/ml hygromycin). In general, the day before the experiment, 18,000 cells/well were plated in a 384-well clear bottom poly-d-lysine coated plate. The following day the screening compound-induced calcium activity was assayed on the FLIPR^Tetra. The drug plates were prepared in 384-well microplates using the EP3 and the MultiPROBE robotic liquid handling systems. Compounds were tested at concentrations ranging from 0.61 to 10,000 nM. Results are expressed as EC50 (nM) and efficacy values.

Row | FPRL-1 Ga16-CHO (Rel. eff.) | pEC50 | Structure (SMILES)
1 | (1.21) | 6.45 | CC(C)C[C@H](NC(=O)Nc1ccc([S+](C)[O-])cc1)C(=O)NCC(=O)O (stereo partly drawn) [Compound 77, {[(2S)-4-methyl-2-({[4-(methylsulfinyl)phenyl]carbamoyl}amino)pentanoyl]amino}acetic acid]
2 | (0.95) | 6.58 | CC(C)(C)OC(=O)CNC(=O)C(Cc1c[nH]cn1)NC(=O)Nc1ccc(Br)cc1 (stereo not drawn) [Compound 84, tert-butyl {[2-{[(4-bromophenyl)carbamoyl]amino}-3-(1H-imidazol-4-yl)propanoyl]amino}acetate]
3 | (0.92) | 7.42 | CCC[C@H](NC(=O)Nc1ccc(Br)cc1)C(=O)NCCO [Compound 20, (2S)-2-{[(4-bromophenyl)carbamoyl]amino}-N-(2-hydroxyethyl)pentanamid]
4 | (1.02) | 6.91 | CC(C)C[C@H](NC(=O)Nc1ccc(Br)cc1)C(=O)N[C@H](C(=O)OC(C)(C)C)c1ccccc1 [Compound 50, tert-butyl(2S)-{[(2S)-2-{[(4-bromophenyl)carbamoyl]amino}-4-methylpentanoyl]amino}(phenyl)ethanoate]
5 | (0.96) | 9.00 | CC(C)C[C@H](NC(=O)Nc1ccc(Br)cc1)C(=O)NC(C)(C)C(=O)O [Compound 74, 2-{[(2S)-2-{[(4-bromophenyl)carbamoyl]amino}-4-methylpentanoyl]amino}-2-methylpropanoic acid]
6 | (0.92) | 5.44 | CC(C)C[C@@H](NC(=O)Nc1ccc(Br)cc1)C(=O)NCC(=O)OC(C)(C)C [Compound 66, tert-butyl {[(2R)-2-{[(4-bromophenyl)carbamoyl]amino}-4-methylpentanoyl]amino}acetate]
7 | (1.18) | 7.24 | CCC[C@H](NC(=O)Nc1ccc(Br)cc1)C(=O)NCC(=O)OCC [Compound 23, ethyl {[(2S)-2-{[(4-bromophenyl)carbamoyl]amino}-pentanoyl]amino}acetate]
8 | (0.44) | 5.40 | CC[C@@H](C)[C@@H](NC(=O)Nc1ccc(Br)cc1)C(=O)NCC(=O)OC(C)(C)C [Compound 64, tert-butyl {[(2R,3R)-2-{[(4-bromophenyl)carbamoyl]amino}-3-methylpentanoyl]amino}acetate]
9 | (1.03) | 8.19 | CCC[C@H](NC(=O)[C@H](CC(C)C)NC(=O)Nc1ccc(Br)cc1)C(N)=O [Compound 53, (2S)-N-[(2S)-1-amino-1-oxopentan-2-yl]-2-{[(4-bromophenyl)carbamoyl]amino}-4-methylpentanamide]
10 | (1.05) | 8.53 | CSc1ccc(NC(=O)N[C@@H](CC(C)C)C(=O)NCC(=O)O)cc1 [Compound 70, {[(2S)-4-methyl-2-({[4-(methylsulfanyl)phenyl]carbamoyl}amino)pentanoyl]amino}acetic acid]
11 | (1.05) | 7.51 | CC(C)C[C@H](NC(=O)Nc1ccc(Br)cc1F)C(=O)N[C@@H](C)C(N)=O [Compound 40, (2S)-N-[(1S)-2-amino-1-methyl-2-oxoethyl]-2-{[(4-bromo-2-fluorophenyl)carbamoyl]amino}-4-methylpentanamide]
12 | (0.97) | 8.60 | CCC[C@H](NC(=O)Nc1ccc(Br)cc1)C(=O)NCC(N)=O [Compound 30, (2S)-N-(2-amino-2-oxoethyl)-2-{[(4-bromophenyl)carbamoyl]amino}-pentanamide]
13 | – | 8.29 | CC(C)C[C@H](NC(=O)Nc1ccc(Br)cc1)C(=O)NCC(O)CO (stereo partly drawn) [Compound 47, (2S)-2-{[(4-bromophenyl)carbamoyl]amino}-N-(2,3-dihydroxypropyl)-4-methylpentanamide]
14 | (0.99) | 8.74 | CC(C)C[C@H](NC(=O)Nc1ccc(C(F)(F)F)cc1)C(=O)NCC(=O)O [Compound 63, {[(2S)-4-methyl-2-({[4-(trifluoromethyl)phenyl]carbamoyl}amino)pentanoyl]amino}acetic acid]
15 | – | 8.68 | CC(C)C[C@H](NC(=O)Nc1ccc(Br)cc1)C(=O)NCC(C)(C)O [Compound 47, (2S)-2-{[(4-bromophenyl)carbamoyl]amino}-N-(2-hydroxy-2-methylpropyl)-4-methylpentanamide]
16 | (1.00) | 8.57 | CC[C@H](C)[C@H](NC(=O)Nc1ccc(Br)cc1)C(=O)NCC(=O)O [Compound 4, {[(2S,3S)-2-{[(4-bromophenyl)carbamoyl]amino}-3-methylpentanoyl]amino}acetic acid]

Row | FPRL-1 Ga16-CHO (Rel. eff.) | pEC50 | Structure (SMILES)
17 | (1.02) | 6.94 | CC(C)(C)OC(=O)CNC(=O)C(C)(C)NC(=O)Nc1ccc(Br)cc1 [Compound 59, tert-butyl {[2-{[(4-bromophenyl)carbamoyl]amino}-2-methylpropanoyl]amino}acetate]
18 | (0.98) | 7.66 | CC(C)CC(C)(NC(=O)Nc1ccc(Br)cc1)C(=O)NCC(=O)O (stereo not drawn) [Compound 56, {[2-{[(4-bromophenyl)carbamoyl]amino}-2,4-dimethylpentanoyl]amino}acetic acid]
19 | (1.12) | 6.34 | CC(C)C[C@H](NC(=O)Nc1ccc(S(C)(=O)=O)cc1)C(=O)NCC(=O)O [Compound 78, {[(2S)-4-methyl-2-({[4-(methylsulfonyl)phenyl]carbamoyl}amino)pentanoyl]amino}acetic acid]
20 | (1.00) | 6.59 | CC(C)(C)OC(=O)CCNC(=O)[C@H](Cc1ccccc1)NC(=O)Nc1ccc(Br)cc1 [Compound 8, tert-butyl 3-{[(2S)-2-{[(4-bromophenyl)carbamoyl]amino}-3-phenylpropanoyl]amino}propanoate]
21 | (0.98) | 6.94 | CSc1ccc(NC(=O)N[C@@H](CC(C)C)C(=O)NCC(=O)OC(C)(C)C)cc1 [Compound 68, tert-butyl {[(2S)-4-methyl-2-({[4-(methylsulfanyl)phenyl]carbamoyl}amino)pentanoyl]amino}acetate]
22 | (0.92) | 8.22 | O=C(Nc1ccc(Br)cc1)N[C@@H](Cc1ccccc1)C(=O)NCCO [Compound 9, (2S)-2-{[(4-bromophenyl)carbamoyl]amino}-N-(2-hydroxyethyl)-3-phenylpropanamide]
23 | (0.98) | 7.17 | CC(C)C[C@H](NC(=O)Nc1ccc(Br)cc1)C(=O)N[C@H](C(=O)OC(C)(C)C)C(C)C [Compound 42, tert-butyl(2S)-2-{[(2S)-2-{[(4-bromophenyl)carbamoyl]amino}-4-methylpentanoyl]amino}-3-methylbutanoate]
24 | (1.16) | 6.88 | CC(C)C[C@H](NC(=O)Nc1ccc(Br)cc1)C(=O)NC(C)(C)C(=O)OC(C)(C)C [Compound 73, tert-butyl 2-{[(2S)-2-{[(4-bromophenyl)carbamoyl]amino}-4-methylpentanoyl]amino}-2-methylpropanoate]
25 | (0.86) | 6.12 | CC[C@H](C)[C@H](NC(=O)Nc1ccc(Br)cc1F)C(=O)NCC(=O)OC(C)(C)C [Compound 10, tert-butyl{[(2S,3S)-2-{[(4-bromo-2-fluorophenyl)carbamoyl]amino}-3-methylpentanoyl]amino}acetate]
26 | (1.01) | 7.44 | CC[C@H](C)[C@H](NC(=O)Nc1ccc(Br)cc1F)C(=O)NCC(C)=O [Compound 13, (2S,3S)-2-{[(4-bromo-2-fluorophenyl)carbamoyl]amino}-3-methyl-N-(2-oxopropyl)pentanamide]
27 | (1.13) | 8.74 | CC(C)C[C@H](NC(=O)Nc1ccc(Br)cc1)C(=O)N[C@H](C(=O)O)C(C)C [Compound 44, (2S)-2-{[(2S)-2-{[(4-bromophenyl)carbamoyl]amino}-4-methylpentanoyl]amino}-3-methylbutanoic acid]
28 | (0.95) | 7.08 | CCC[C@H](NC(=O)Nc1ccc(Br)cc1F)C(=O)NCC(=O)OC(C)(C)C [tert-butyl {[(2S)-2-{[(4-bromo-2-fluorophenyl)carbamoyl]amino}pentanoyl]amino}acetate]
29 | (0.82) | 8.33 | CC(=O)CNC(=O)[C@H](CC(C)C)NC(=O)Nc1ccc(Br)cc1 [Compound 27, (2S)-2-{[(4-bromophenyl)carbamoyl]amino}-4-methyl-N-(2-oxopropyl)pentanamide]
30 | (1.10) | 8.44 | CC(C)C[C@H](NC(=O)Nc1ccc(Br)cc1F)C(=O)NCC(=O)O [Compound 34, {[(2S)-2-{[(4-bromo-2-fluorophenyl)carbamoyl]amino}-4-methylpentanoyl]amino}acetic acid]
31 | (0.92) | 8.64 | CC(C)C[C@H](NC(=O)Nc1ccc(C(F)(F)F)cc1)C(=O)NC(C)(C)C(=O)O [Compound 69, 2-methyl-2-{[(2S)-4-methyl-2-({[4-(trifluoromethyl)phenyl]carbamoyl}amino)pentanoyl]amino}propanoic acid]

From US10172832B2, “Amide derivatives of N-urea substituted amino acids as formyl peptide receptor like-1 (FPRL-1) receptor modulators” (Allergan, Inc., priority 2011, dated 2019)
